Drawing on PubChem BioAssay AID1259407 (Chemical Carcinogenesis Research Information System (CCRIS), 2018), this text covers mutagenic call for five compounds.

This data set concerns CCRIS mutagenicity, Ames/micronucleus/aberration tests. Briefly: CCRIS mutagenicity studies.
Setting [1] is: Test System: AMES SALMONELLA TYPHIMURIUM, Strain/Indicator: TA98, Metabolic Activation: NONE, Method: STANDARD PLATE.
[2] abbreviates: Test System: AMES SALMONELLA TYPHIMURIUM, Strain/Indicator: TA100, Metabolic Activation: NONE, Method: STANDARD PLATE.
Where [3] appears, read: Test System: MOUSE LYMPHOMA, Strain/Indicator: L5178Y (TK+/TK-), Metabolic Activation: NONE, Method: SUSPENSION/PLATE.
Setting [4] is: Test System: MOUSE LYMPHOMA, Strain/Indicator: L5178Y (TK+/TK-), Metabolic Activation: RAT, LIVER, S-9, AROCLOR 1254, Method: SUSPENSION/PLATE.
Setting [5] is: Test System: AMES SALMONELLA TYPHIMURIUM, Strain/Indicator: TA98, Metabolic Activation: RAT, LIVER, S-9, AROCLOR 1254, Method: STANDARD PLATE.
Setting [6] is: Test System: AMES SALMONELLA TYPHIMURIUM, Strain/Indicator: TA100, Metabolic Activation: RAT, LIVER, S-9, AROCLOR 1254, Method: STANDARD PLATE.
[7] abbreviates: Test System: AMES SALMONELLA TYPHIMURIUM, Strain/Indicator: TA1535, Metabolic Activation: NONE, Method: STANDARD PLATE.
The mark [8] stands for this setting: Test System: AMES SALMONELLA TYPHIMURIUM, Strain/Indicator: TA1537, Metabolic Activation: NONE, Method: STANDARD PLATE.

The source made the active and inactive calls. No rule for the calls is given here.

Regarding `C=C(C)[C@H]1CC=C(C)CC1`, the mutagenic call reads like this: (End Point: IN VITRO CHROMOSOMAL ABERRATIONS, Test System: CHO CELLS, Metabolic Activation: NONE) “inactive; negative”; (End Point: IN VITRO CHROMOSOMAL ABERRATIONS, Test System: CHO CELLS, Metabolic Activation: RAT, LIVER, S-9, AROCLOR 1254) “inactive; negative”; (Test System: AMES SALMONELLA TYPHIMURIUM, Strain/Indicator: TA98, Metabolic Activation: HAMSTER, LIVER, S-9, AROCLOR 1254, Method: PREINCUBATION) “inactive; negative”; (Test System: AMES SALMONELLA TYPHIMURIUM, Strain/Indicator: TA98, Metabolic Activation: NONE, Method: PREINCUBATION) “inactive; negative”; under setting [1], “inactive; negative”; (Test System: AMES SALMONELLA TYPHIMURIUM, Strain/Indicator: TA98, Metabolic Activation: RAT, LIVER, S-9, AROCLOR 1254, Method: PREINCUBATION) “inactive; negative”. Further, the mutagenic call (Test System: AMES SALMONELLA TYPHIMURIUM, Strain/Indicator: TA98, Metabolic Activation: RAT, LIVER, S-9, AROCLOR, Method: STANDARD PLATE) was “inactive; negative”; the mutagenic call (Test System: AMES SALMONELLA TYPHIMURIUM, Strain/Indicator: TA100, Metabolic Activation: HAMSTER, LIVER, S-9, AROCLOR 1254, Method: PREINCUBATION) was “inactive; negative”; the mutagenic call (Test System: AMES SALMONELLA TYPHIMURIUM, Strain/Indicator: TA100, Metabolic Activation: NONE, Method: PREINCUBATION) is “inactive; negative”; the mutagenic call under setting [2] is “inactive; negative”; the mutagenic call (Test System: AMES SALMONELLA TYPHIMURIUM, Strain/Indicator: TA100, Metabolic Activation: RAT, LIVER, S-9, AROCLOR 1254, Method: PREINCUBATION) is “inactive; negative”; the mutagenic call (Test System: AMES SALMONELLA TYPHIMURIUM, Strain/Indicator: TA100, Metabolic Activation: RAT, LIVER, S-9, AROCLOR, Method: STANDARD PLATE) is “inactive; negative”. Besides, the mutagenic call is, setting by setting: (Test System: AMES SALMONELLA TYPHIMURIUM, Strain/Indicator: TA1535, Metabolic Activation: HAMSTER, LIVER, S-9, AROCLOR 1254, Method: PREINCUBATION) “inactive; negative”; (Test System: AMES SALMONELLA TYPHIMURIUM, Strain/Indicator: TA1535, Metabolic Activation: NONE, Method: PREINCUBATION) “inactive; negative”; (Test System: AMES SALMONELLA TYPHIMURIUM, Strain/Indicator: TA1535, Metabolic Activation: RAT, LIVER, S-9, AROCLOR 1254, Method: PREINCUBATION) “inactive; negative”; (Test System: AMES SALMONELLA TYPHIMURIUM, Strain/Indicator: TA1537, Metabolic Activation: HAMSTER, LIVER, S-9, AROCLOR 1254, Method: PREINCUBATION) “inactive; negative”; (Test System: AMES SALMONELLA TYPHIMURIUM, Strain/Indicator: TA1537, Metabolic Activation: NONE, Method: PREINCUBATION) “inactive; negative”; (Test System: AMES SALMONELLA TYPHIMURIUM, Strain/Indicator: TA1537, Metabolic Activation: RAT, LIVER, S-9, AROCLOR 1254, Method: PREINCUBATION) “inactive; negative”. The mutagenic call (Test System: AMES SALMONELLA TYPHIMURIUM, Strain/Indicator: UTH8413, Metabolic Activation: NONE, Method: STANDARD PLATE) is “inactive; negative”; the mutagenic call (Test System: AMES SALMONELLA TYPHIMURIUM, Strain/Indicator: UTH8413, Metabolic Activation: RAT, LIVER, S-9, AROCLOR, Method: STANDARD PLATE) is “inactive; negative”; the mutagenic call (Test System: AMES SALMONELLA TYPHIMURIUM, Strain/Indicator: UTH8414, Metabolic Activation: NONE, Method: STANDARD PLATE) is “inactive; negative”; the mutagenic call (Test System: AMES SALMONELLA TYPHIMURIUM, Strain/Indicator: UTH8414, Metabolic Activation: RAT, LIVER, S-9, AROCLOR, Method: STANDARD PLATE) is “inactive; negative”; the mutagenic call under setting [3] was “inactive; negative”; the mutagenic call under setting [4] was “active; positive”.
For `O=C(O)CCc1ccccc1`, the mutagenic call by setting is: (Test System: AMES SALMONELLA TYPHIMURIUM, Strain/Indicator: TA98, Metabolic Activation: HAMSTER, LIVER, S-9, AROCLOR 1254, Method: STANDARD PLATE) “inactive; negative”; under setting [1], “inactive; negative”; under setting [5], “inactive; negative”; (Test System: AMES SALMONELLA TYPHIMURIUM, Strain/Indicator: TA100, Metabolic Activation: HAMSTER, LIVER, S-9, AROCLOR 1254, Method: STANDARD PLATE) “inactive; negative”; under setting [2], “inactive; negative”; under setting [6], “inactive; negative”. Also, the mutagenic call reads like this: (Test System: AMES SALMONELLA TYPHIMURIUM, Strain/Indicator: TA1535, Metabolic Activation: HAMSTER, LIVER, S-9, AROCLOR 1254, Method: STANDARD PLATE) “inactive; negative”; under setting [7], “inactive; negative”; (Test System: AMES SALMONELLA TYPHIMURIUM, Strain/Indicator: TA1535, Metabolic Activation: RAT, LIVER, S-9, AROCLOR 1254, Method: STANDARD PLATE) “inactive; negative”; (Test System: AMES SALMONELLA TYPHIMURIUM, Strain/Indicator: TA1537, Metabolic Activation: HAMSTER, LIVER, S-9, AROCLOR 1254, Method: STANDARD PLATE) “inactive; negative”; under setting [8], “inactive; negative”; (Test System: AMES SALMONELLA TYPHIMURIUM, Strain/Indicator: TA1537, Metabolic Activation: RAT, LIVER, S-9, AROCLOR 1254, Method: STANDARD PLATE) “inactive; negative”. The mutagenic call was “inactive; negative” (Test System: AMES SALMONELLA TYPHIMURIUM, Strain/Indicator: TA1538, Metabolic Activation: HAMSTER, LIVER, S-9, AROCLOR 1254, Method: STANDARD PLATE); “inactive; negative” (Test System: AMES SALMONELLA TYPHIMURIUM, Strain/Indicator: TA1538, Metabolic Activation: NONE, Method: STANDARD PLATE); “inactive; negative” (Test System: AMES SALMONELLA TYPHIMURIUM, Strain/Indicator: TA1538, Metabolic Activation: RAT, LIVER, S-9, AROCLOR 1254, Method: STANDARD PLATE); “inactive; negative. reevaluation of results: negative” under setting [3]; “inactive; negative. reevaluation of results: negative” under setting [4].
In the case of `O=CNc1ccc(Oc2ccccc2)cc1`, the mutagenic call by setting is: under setting [2], “inactive; negative”; (Test System: AMES SALMONELLA TYPHIMURIUM, Strain/Indicator: TA100, Metabolic Activation: RAT, LIVER, S-9, KANECLOR 500, Method: STANDARD PLATE) “active; positive”.
Consider `C1=CC2OC2c2ncccc21` (configuration not stated), for which the mutagenic call under setting [2] was “inactive; negative” and the mutagenic call (Test System: AMES SALMONELLA TYPHIMURIUM, Strain/Indicator: TA100, Metabolic Activation: RAT, LIVER, S-9, AROCLOR 1254 (10% OR 20%), Method: STANDARD PLATE) is “active; positive”.
Take `Cc1cc(Cl)ccc1N`: the mutagenic call runs as follows: (End Point: IN VITRO CHROMOSOMAL ABERRATIONS, Test System: CHINESE HAMSTER OVARY CELLS, Metabolic Activation: NONE) “inactive; negative; authors report that the study may not have allowed sufficient time for”; (End Point: IN VITRO CHROMOSOMAL ABERRATIONS, Test System: CHINESE HAMSTER OVARY CELLS, Metabolic Activation: RAT, LIVER, S-9, AROCLOR 1254) “active; positive”; under setting [1], “inactive; negative”; under setting [5], “active; positive”; (Test System: AMES SALMONELLA TYPHIMURIUM, Strain/Indicator: TA98, Metabolic Activation: RAT, LIVER, S-9, CLOPHEN A50, Method: STANDARD PLATE) “active; positive”; under setting [2], “inactive; negative”. Further, the mutagenic call is “inactive; negative” under setting [6]; “active; positive” (Test System: AMES SALMONELLA TYPHIMURIUM, Strain/Indicator: TA100, Metabolic Activation: RAT, LIVER, S-9, CLOPHEN A50, Method: STANDARD PLATE); “inactive; negative” under setting [7]; “inactive; negative” (Test System: AMES SALMONELLA TYPHIMURIUM, Strain/Indicator: TA1535, Metabolic Activation: RAT, LIVER, S-9, CLOPHEN A50, Method: STANDARD PLATE); “inactive; negative” under setting [8]; “inactive; negative” (Test System: AMES SALMONELLA TYPHIMURIUM, Strain/Indicator: TA1537, Metabolic Activation: RAT, LIVER, S-9, CLOPHEN A50, Method: STANDARD PLATE).
